ChEMBL document CHEMBL1153070, “Urea and carbamate derivatives of primaquine: synthesis, cytostatic and antioxidant activities” (Bioorg Med Chem, 2009)
The source made the active and inactive calls. The rule behind the calls is not given here.

Legend:
MCF7 [1] = assay: Cytostatic activity against human MCF7 cells; assay type: functional, cell-based
[2] = Antioxidant activity assessed as inhibition of AAPH-induced lipid peroxidation at 0.1 mM; assay type: functional
HCT-116 = assay: Cytostatic activity against human HCT116 cells; assay type: functional, cell-based
[3] = system: Radical scavenging activity; assay: Antioxidant activity assessed as DPPH radical scavenging activity at 0.05 mM after 60 mins; assay type: functional
[4] = system: Radical scavenging activity; assay: Antioxidant activity assessed as DPPH radical scavenging activity; assay type: functional
[5] = system: Radical scavenging activity; assay: Antioxidant activity assessed as DPPH radical scavenging activity at 0.1 mM after 60 mins; assay type: functional
Glycine max = assay: Inhibition of soybean lipoxygenase
NCI-H460 = assay: Cytostatic activity against human H460 cells; assay type: functional, cell-based
[6] = system: Radical scavenging activity; assay: Antioxidant activity assessed as DPPH radical scavenging activity at 0.1 mM after 20 mins; assay type: functional
MOLT-4 = assay: Cytostatic activity against human MOLT4 cells; assay type: functional, cell-based
SW-620 = assay: Cytostatic activity against human SW620 cells; assay type: functional, cell-based
[7] = system: Radical scavenging activity; assay: Antioxidant activity assessed as DPPH radical scavenging activity at 0.05 mM after 20 mins; assay type: functional
MCF7 [8] = assay: Antiproliferative activity against human MCF7 cells at 100 uM after 24 hrs; assay type: functional; settings: MCF7, 24 h

| IC50 (MCF7 [1]) [µM] | IC50 (HCT-116) [µM] | INH (Glycine max) [µM] | IC50 (NCI-H460) [µM] | IC50 (MOLT-4) [µM] | IC50 (SW-620) [µM] | inhibition (Glycine max) | IC50 [2] | Structure (SMILES) | Inhibition [2] [%] | Activity [3] | Activity [4] | Activity [5] [%] | Activity [6] | Activity [7] | inhibition at 100 µM (MCF7 [8]) [%] |
| --- | --- | --- | --- | --- | --- | --- | --- | --- | --- | --- | --- | --- | --- | --- | --- |
| 31 | 15 | 62 | 18 | 10 | 17 |  |  | COc1cc(NC(C)CCCNC(=O)NCCNC(=O)NCCCC(C)Nc2cc(OC)cc3cccnc23)c2ncccc2c1 (stereo not given) | 99 | 27.6% | Dose-dependent effect | 40.5 | 35.7% | 34.2% |  |
| > 100 | 223 |  | > 100 | > 100 | > 100 |  |  | NC(=O)NO [HYDROXYUREA] |  |  |  |  |  |  |  |
| 28 | 20 | 74 | 30 |  | ≥ 100 |  |  | COc1cc(NC(C)CCCN)c2ncccc2c1 (stereo not given) [PRIMAQUINE] | 45 | 19% |  | 21.9 | 18.1% | 17.2% | 20 |
|  |  | 600 |  |  |  |  |  | O=C(O)/C=C/c1ccc(O)c(O)c1 |  |  |  |  |  |  |  |
| 36 | > 100 | 86 | > 100 | > 100 | > 100 |  |  | COc1cc(NC(C)CCCNC(=O)N(CCO)CCO)c2ncccc2c1 (stereo not given) | 85 | 7.4% | Dose-dependent effect | 11.9 | inactive | 20.7% |  |
|  |  |  |  |  |  |  |  | CC(Cc1ccc(O)c(O)c1)C(C)Cc1ccc(O)c(O)c1 (stereo not given) |  |  |  | 83 | 81% |  |  |
| 44 | 29 | 310 | 2 | 61 | 0.2 |  |  | COc1cc(NC(C)CCCNC(=O)NCCCCCO)c2ncccc2c1 (stereo not given) | 63 | inactive | Dose-dependent effect | 46.4 | 34.5% | inactive |  |
|  |  | 220 |  |  |  |  |  | COc1cc(NC(C)CCCNC(=O)NC2CCCC2)c2ncccc2c1 (stereo not given) | 99 | 21.3% | Dose-dependent effect | 19 | 26.2% | 15.8% |  |
| 44 | 57 | 83 | > 100 | > 100 | 35 |  |  | COc1cc(NC(C)CCCNC(=O)NO)c2ncccc2c1 (stereo not given) | 69 | 60.6% | Dose-dependent effect | 84.5 | 88.1% | 2.2% |  |
| > 100 | > 100 | 72 | > 100 | ≥ 100 | > 100 |  |  | COc1cc(N2C(=O)NCCCC2C)c2ncccc2c1 (stereo not given) | 88 | 40% | Dose-dependent effect | 57.1 | 48.8% | 30.5% |  |
| 9 | 14 | 230 | 21 | 12 | 20 |  |  | COc1cc(NC(C)CCCNC(=O)NOCc2ccccc2)c2ncccc2c1 (stereo not given) | 82 | inactive | Dose-dependent effect | 38.1 | 11.4% | inactive |  |
| 24 | > 100 |  | > 100 | > 100 | > 100 | inactive |  | COc1cc(NC(C)CCCNC(=O)NC(CO)(CO)CO)c2ncccc2c1 (stereo not given) | 86 | 22.3% | Dose-dependent effect | 40.5 | 28.6% | 24.4% |  |
|  |  | 260 |  |  |  |  | Not Active | COc1cc(NC(C)CCCNC(=O)n2nnc3ccccc32)c2ncccc2c1 (stereo not given) [PRIMAQUINE BENZOTRIAZOLIDE] |  | 20% | Dose-dependent effect | 73.8 | 16.7% | 18.4% |  |
| 31 | > 100 | 230 | > 100 | > 100 | > 100 |  |  | COc1cc(NC(C)CCCNC(=O)NCCCO)c2ncccc2c1 (stereo not given) | 56 | 27.7% | Dose-dependent effect | 33.3 | 28.6% | 12.2% |  |
|  |  | 320 |  |  |  |  |  | COc1cc(NC(C)CCCNC(=O)N(C2CCCCC2)C2CCCCC2)c2ncccc2c1 (stereo not given) | 96 | 28.8% | Dose-dependent effect | 42.9 | 42.9% | 3.9% |  |
| 25 | > 100 | 315 | > 100 | > 100 | > 100 |  |  | COc1cc(NC(C)CCCNC(=O)NCCO)c2ncccc2c1 (stereo not given) | 81 | 10.6% | Dose-dependent effect | 51.2 | 60.7% | 3.7% |  |
|  |  |  |  |  |  |  |  | Cc1c(C)c2c(c(C)c1O)CCC(C)(C(=O)O)O2 (stereo not given) [TROLOX] | 63 |  |  |  |  |  |  |
| 26 | 28 |  | 38 | 34 | 45 | inactive |  | CCOC(=O)NCCCC(C)Nc1cc(OC)cc2cccnc12 (stereo not given) | 87 | 8.5% | Dose-dependent effect | 31 | inactive | 10.8% |  |
| > 100 | > 100 |  | > 100 | > 100 | > 100 | inactive |  | COC(=O)NCCCC(C)Nc1cc(OC)cc2cccnc12 (stereo not given) | 83 | 13.8% | Dose-dependent effect | 48.8 | 75% | 24.4% |  |
|  |  |  |  |  |  | inactive |  | COc1cc(NC(C)CCCNC(=O)NC2CCCCC2)c2ncccc2c1 (stereo not given) | 99 | 16.3% | Dose-dependent effect | 25 | 27.4% | 28.9% |  |
